Where two headings read alike, the source gives them in different places.
Assays:
[1] = system: reserpine-induced hypothermia; assay: Antagonism of reserpine-induced hypothermia; assay type: in vivo, mice; details: for minimal effective dose: Mus musculus, read-out: minimum effective dose (M.E.D.), antagonism of reserpine-induced hypothermia; for potency relative to Compound A in reversal of reserpine-induced hypothermia: compared with Compound A
Protocol: 37, 795-797 (1981); and antagonize reserpine induced hypothermia when tested in accordance with the procedure of Askew, Life Sci. 1, 725-730 (1963).
All mice received 5mg/kg reserpine s.c. 18 h prior to test compound.

[2] = system: carbachol-stimulated contraction of the guinea-pig ileum; assay: Inhibition of carbachol-stimulated contraction of guinea-pig ileum
[3] = target: ^3H-imipramine binding in brain tissue
[4] = target: T1, synaptosomal uptake of serotonin (14C-5-HT) (Homo sapiens, UniProt P31645); assay: biochemical
T1 construct: from tissue

[5] = target: synaptosomal uptake of norepinephrine (^3H-NE); assay: Inhibition of synaptosomal NE uptake
[6] = target: muscarinic receptor; details: read-out: Ki (^3H-QNB binding)
[7] = ip, mice, n = 8 per group, 5mg/kg reserpine s.c. 18 h prior to test compound
[8] = read-out: inhibition constant (Ki) vs. ^3H-imipramine
[9] = unit inferred, read-out: inhibition constants (vs. ^3H-imipramine)

Chain of synaptosomal uptake of norepinephrine (^3H-NE) (P23975 whole entry): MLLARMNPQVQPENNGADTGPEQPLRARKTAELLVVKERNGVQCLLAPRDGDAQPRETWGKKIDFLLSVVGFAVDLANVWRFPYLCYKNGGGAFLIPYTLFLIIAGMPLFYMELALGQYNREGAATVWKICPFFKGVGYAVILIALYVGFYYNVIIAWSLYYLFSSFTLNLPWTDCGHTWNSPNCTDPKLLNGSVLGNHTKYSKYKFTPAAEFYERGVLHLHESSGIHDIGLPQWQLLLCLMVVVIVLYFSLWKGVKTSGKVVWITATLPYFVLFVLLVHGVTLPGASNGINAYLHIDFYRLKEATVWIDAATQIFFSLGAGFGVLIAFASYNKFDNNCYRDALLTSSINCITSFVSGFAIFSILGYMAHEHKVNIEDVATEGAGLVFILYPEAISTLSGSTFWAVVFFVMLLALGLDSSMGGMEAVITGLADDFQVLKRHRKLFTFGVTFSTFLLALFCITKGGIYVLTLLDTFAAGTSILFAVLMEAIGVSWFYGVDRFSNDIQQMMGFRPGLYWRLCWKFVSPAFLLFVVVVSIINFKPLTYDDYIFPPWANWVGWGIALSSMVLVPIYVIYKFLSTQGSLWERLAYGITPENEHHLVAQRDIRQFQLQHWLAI
T1 sequence (P31645 whole entry): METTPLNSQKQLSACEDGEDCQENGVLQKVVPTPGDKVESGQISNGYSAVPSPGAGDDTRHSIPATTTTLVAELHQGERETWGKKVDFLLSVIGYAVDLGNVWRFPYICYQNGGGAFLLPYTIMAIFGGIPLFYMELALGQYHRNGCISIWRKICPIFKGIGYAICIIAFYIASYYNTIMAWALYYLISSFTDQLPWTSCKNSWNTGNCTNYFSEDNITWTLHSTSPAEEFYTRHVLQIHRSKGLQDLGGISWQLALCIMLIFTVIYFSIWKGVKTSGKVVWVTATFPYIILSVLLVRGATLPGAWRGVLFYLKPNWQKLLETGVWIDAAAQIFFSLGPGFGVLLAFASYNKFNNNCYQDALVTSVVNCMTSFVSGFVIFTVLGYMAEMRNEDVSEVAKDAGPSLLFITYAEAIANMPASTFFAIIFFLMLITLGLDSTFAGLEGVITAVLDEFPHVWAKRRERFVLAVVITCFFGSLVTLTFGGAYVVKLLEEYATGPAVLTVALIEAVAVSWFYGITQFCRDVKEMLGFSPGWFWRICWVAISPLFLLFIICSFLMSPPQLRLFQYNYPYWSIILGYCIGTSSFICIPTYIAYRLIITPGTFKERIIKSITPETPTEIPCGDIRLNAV

Structure (SMILES)	minimal effective dose [1, 7]	potency relative to Compound A in reversal of reserpine-induced hypothermia ([1]; mice)	IC50 [5]	Ki [3, 9]	other results
COc1ccc(C(CN(C)C)C2(O)CCCCC2)cc1 (racemic) [Compound A, 1-[(2-dimethylamino)-1-(4-methoxyphenyl)ethyl]-cyclohexanol]	–	–	–	–	minimal effective dose ([1]; ip): 10 mg/kg; minimal effective dose ([1]; po): 10 mg/kg; activity against carbachol-stimulated contraction of the guinea-pig ileum ([2]; at 1 µM): inactive
COc1ccc(C2CN(C)COC23CCCCC3)cc1 (stereo not drawn) [Compound B, 5-(4-methoxyphenyl)-3-methyl-3-aza-l-oxas^piro(5.5) undecane]	30 mg/kg	less potent	4700 nM	–	Ki [3, 8]: 350 nM; IC50 [4]: 2900 nM
CN(C)CC(c1ccc(Cl)cc1)C1(O)CCCCC1 (centres unmarked) [Compound C, 1-[1-(4-chlorophenyl)-2-(dimethylamino)ethyl]-cyclohexanol]	10 mg/kg	approximately equipotent	330 nM	–	Ki [3, 8]: 100 nM; IC50 [4]: 250 nM
CN(C)CC(c1ccc(Br)cc1)C1(O)CCCCC1 (centres unmarked) [Compound D, 1-[1-(4-bromophenyl)-2-(dimethylamino)ethyl]-cyclohexanol]	3 mg/kg	approximately three times as potent	–	62 nM	–
CN(C)CC(c1cccc(Cl)c1)C1(O)CCCCC1 (centres unmarked) [Compound E, 1-[1-(3-chlorophenyl)-2-(dimethylamino)ethyl]-cyclohexanol]	1 mg/kg	–	–	–	Ki ([3]; read-out: inhibition constants (vs. ^3H-imipramine)): 130 nM
CN(C)CC(c1cccc(Br)c1)C1(O)CCCCC1 (centres unmarked) [Compound F, 1-[1-(3-bromophenyl)-2-(dimethylamino)ethyl]-cyclohexanol]	1 mg/kg	approximately ten times as potent	–	52 nM	–
CN(C)CC(c1ccc(Cl)c(Cl)c1)C1(O)CCCCC1 (centres unmarked) [Compound G, 1-[1-(3,4-dichlorophenyl)-2-(dimethylamino)ethyl]-cyclohexanol]	3 mg/kg	approximately three times as potent	70 nM	37 nM	–
CNCCCN1c2ccccc2CCc2ccccc21 [DMI, desmethyl- imipramine, reference compound]	–	–	–	–	minimal effective dose ([1]; ip): 0.4 mg/kg; Ki [6]: […]
CN(C)CCCN1c2ccccc2CCc2ccccc21 [Imipramine, reference compound]	–	–	–	–	Kb ([2]; Cavia porcellus, read-out: KB against carbachol-stimulated contraction of the guinea-pig ileum): ~100 nM; Ki [6]: 37 nM
